Experimental data reported in patent US8815946B2, “Inhibition of proliferation and fibrotic response of activated corneal stromal cells” (University of Pittsburgh—of the Commonwealth System of …, priority 2008, dated 2014).

Assays:
[1] = test system: normal human corneal fibroblasts; test: Cell proliferation analysis, human corneal stromal cells; format: cell-based
Experimental: FIGS. 1A-1C. Effect of ethyl pyruvate on the growth of human corneal stromal cells. Corneal stromal cells in P2 growing in DMEM/F12 with 10% FBS were subcultured into desired number of 35 mm tissue culture dishes. After 24 hrs of incubation, the media were replaced with DMEM/F12 medium containing 1% FBS with or without EP (FIG. 1A) or with the same medium containing TGF-β1 or b-FGF/HS with or without EP (FIG. 1B and FIG. 1C, respectively). The cells in several marked regions were counted every 24 hours as described in Methods. The data points are average (±SE) from two separate experiments.
To study the effect of EP on cell proliferation, normal human corneal fibroblasts growing in DMEM/F12 with 10% FBS were subcultured into the desired number of 35 mm tissue culture dishes at a density of 5×10^4 cells/per dish. […] Several regions were marked on the bottom of the dishes and cells in marked regions were counted at 24 hr intervals for five days. Phase contrast digital micrographs of the cells in the marked fields were captured and the cells in the images were counted using MetaMorph® imaging software. The rate of proliferation was evaluated by determining the number of cells at specific time points after treatment/number of cells at the start of the treatment. […]

CD-45+ leukocytes = test: Mouse corneal wound model, FACS with pan-leukocyte marker CD-45+; format: in vivo, Mus musculus strain C57
Source text: A mouse model of corneal wound healing and inflammation induced by lipopolysacharide (LPS) was used to test the effect of EP. Khatari et al., Invest. Opthalmol. Vis. Sci. (2002) 43:2278-2284. Briefly, mice (Mus musculus strain C57, age approx. 2 months) were obtained from Charles River Laboratories in accordance with institutional protocols and divided into the following treatment groups (with 3 samples in each group):
Prior to wounding, all mice were anesthetized with an intraperitoneal injection of 50 mg/kg ketamine with 5 mg/kg xylazine. Topical anesthesia was further achieved with an additional 1 drop of 0.5% proparacaine per eye. Once the animal was sufficiently anesthetized, a corneal wound was constructed in each eye using a sterile 26-gauge needle that penetrated the epithelium and the superficial layers of the stroma. This linear scratch extended from the medial to lateral canthus (FIG. 12). 10 μg of the bacterial super-antigen LPS (Pseudomonas aeruginosa lipopolysaccharide, Sigma) was applied to the wound using a 10 μl pipette and allowed to penetrate the cornea for 5 minutes. Addition of bacterial endotoxin ensured a robust inflammatory response.
The wound was then washed with phosphate buffered saline (PBS/non-pyrogenic dH2O). […] The delivery and concentration of EP was determined according to Devamanoharan et al. (1999); 200(1-2):103-09. […]

Ki67 = Ki67 staining of activated rabbit corneal keratocytes; format: cell-based; conditions: bFGF (40 ng/ml)+HS (5 μg/ml), 15 mM EP, two days
Experimental: FIGS. 18A-18B. Rabbit corneal keratocytes were activated with bFGF (40 ng/ml)+HS (5 μg/ml) without EP (FIG. 18A) or with 15 mM EP (FIG. 18B) and after two days the cells were triple stained with anti-Ki67 antibodies (yellow), phalloidin (red, actin filaments) and DAPI (blue, nucleus).
As described in Example 1, corneal stromal cells were isolated from rabbit corneas and cultured using the same procedures. The keratocytes in serum free media were treated with b-FGF (40 ng/ml)+HS (5 μg/ml) with or without 15 mM EP or 1, 2.5 or 5 mM following EP derivatives: 2-oxopropionic acid 3-methoxyphenyl ester, 2-oxopropionic acid 2-ethoxyethyl ester, 2-oxopropionic acid 2-chloroethyl ester, 2-oxopropionic acid isopropyl ester, 2-oxopropionic acid butyl ester, 2-oxopropionic acid p-tolyl ester, 2-oxopropionic acid tert-butyl ester. Two days following the treatments, the cells were fixed and stained for Ki67 (a nuclear antigen expressed during the G1/S or S phase of the cell cycle) as described supra. The relative levels of the expression of specific proteins were analyzed by Western blot analyses of the cell lysates as described supra.

fibronectin = test: Immunocytochemical analysis of fibronectin expression, rabbit corneal stromal cells; format: cell-based; conditions: rabbit corneal cells treated with TGF-β1
Experimental: FIGS. 6A-6B. Immunocytochemical analysis of fibronectin expression. Normal human stromal cells (FIG. 6A) or rabbit corneal stromal cells (FIG. 6B) in P2 growing in DMEM/F12 with 10% FBS were subcultured into 35 mm tissue culture dishes. After 24 hrs of incubation, the media were replaced with DMEM/F12 medium containing 1% FBS and TGF-β1 with or without (control) 10 mM EP and incubated for four days (media were changed every 24 hours). The cells were fixed and double stained for fibronectin (green) and phalloidin (red) using an indirect fluorescence technique as described herein.
For immunocytochemical analyses, the cells were cultured on glass cover slips or tissue culture dishes. Cells were rinsed with phosphate-buffered saline (PBS), fixed with paraformaldehyde-lysine-periodate and permeabilized with PIPES buffer containing 0.2% Triton X-100, as described previously (Guerriero et al., Invest. Opthalmol. Vis. Sci. 2007; 48: 627-635). Fixed and permeabilized cells were reacted with 10% heat-inactivated goat serum in PBS, pH 7.5, for 45 minutes to block the nonspecific binding of the secondary antibody, rinsed with PBS, and then treated with the primary and secondary antibodies as described previously (Guerriero et al. Invest. Opthalmol. Vis. Sci. 2007; 48: 627-635). Primary antibodies included monoclonal rat anti-α smooth muscle actin (SMA) and anti-fibronectin. […]

CCOC(=O)C(C)=O [ethyl pyruvate]
cell number ([1]; 1% FBS with or without TGF-β1 or b-FGF/HS, 10 mM and 15 mM EP, counted every 24 hours): no significant increases in cell number | proliferation of human corneal fibroblasts and myofibroblasts ([1]; 10-20 mM in the medium): inhibited proliferation | inflammatory cells (CD-45+) by FACS (CD-45+ leukocytes; day 1 post-wounding): 28.50±12.02 | inflammatory cells (CD-45+) by FACS (CD-45+ leukocytes; day 2 post-wounding): 163.00±57.42 | Ki67 positive cells (staining, qualitative) (Ki67): only a few Ki67 positive cells | fibronectin deposition in the matrix (immunocytochemical) (fibronectin): concentration dependent downregulation
